# Results published in patent US9359349B2, “Substituted quinazolines as kinase inhibitors” (Intellikine LLC, priority 2007, dated 2016).
# Where two headings read alike, the source gives them in different places.
# Assays:
# [1] = target: T1, PI3K α (p110α/p85α) (Homo sapiens, UniProt P42336); experiment: PI3K α (p110α/p85α) inhibition assay; type: biochemical
# T1 construct: purchased Upstate
# Description: (§1) Class I PI3-Ks can be either purchased (p110α/p85α, p110β/p85α, p110δ/p85α from Upstate, and p110γ from Sigma) or expressed as previously described (Knight at al., 2004). IC50 values are measured using either a standard TLC assay for lipid kinase activity (described below) or a high-throughput membrane capture assay. Kinase reactions are performed by preparing a reaction mixture containing kinase, inhibitor (2% DMSO final concentration), buffer (25 mM HEPES, pH 7.4, 10 mM MgCl2), and freshly sonicated phosphatidylinositol (100 μg/ml). Reactions are initiated by the addition of ATP containing 10 μCi of γ-32P-ATP to a final concentration 10 or 100 μM and allowed to proceed for 5 minutes at room temperature. For TLC analysis, reactions are then terminated by the addition of 105 μl 1N HCl followed by 160 μl CHCl3:MeOH (1:1). The biphasic mixture is vortexed, briefly centrifuged, and the organic phase is transferred to a new tube using a gel loading pipette tip precoated with CHCl3. This extract is spotted on TLC plates and developed for 3-4 hours in a 65:35 solution of n-propanol: 1M acetic acid. The TLC plates are then dried, exposed to a phosphorimager screen (Storm, Amersham), and quantitated. For each compound, kinase activity is measured at 10-12 inhibitor concentrations representing two-fold dilutions from the highest concentration tested (typically, 200 μM).
# (§2) Other commercial kits or systems for assaying PI3-K activities are avaiable. The commercially available kits or systems can be used to screen for inhibitors and/or agonists of PI3-Ks including but not limited to PI 3-Kinase α, β, δ, and γ. Anr exemplary system is PI 3-Kinase (human) HTRF™ Assay from Upstate. […] Briefly, the assay is a time resolved FRET assay that indirectly measures PIP3 product formed by the activity of a PI3-K. The kinase reaction is performed in a microtitre plate (e.g., a 384 well microtitre plate). The total reaction volume is approximately 20 ul per well. In the first step, each well receives 2 ul of test compound in 20% dimethylsulphoxide resulting in a 2% DMSO final concentration. Next, approximately 14.5 ul of a kinase/PIP2 mixture (diluted in 1× reaction buffer) is added per well for a final concentration of 0.25-0.3 ug/ml kinase and 10 uM PIP2. The plate is sealed and incubated for 15 minutes at room temperature. To start the reaction, 3.5 ul of ATP (diluted in 1× reaction buffer) is added per well for a final concentration of 10 uM ATP. The plate is sealed and incubated for 1 hour at room temperature. The reaction is stopped by adding 5 ul of Stop Solution per well and then 5 ul of Detection Mix is added per well. The plate is sealed, incubated for 1 hour at room temperature, and then read on an appropriate plate reader. Data is analyzed and IC50s are generated using GraphPad Prism 5.
# [2] = test system: PC-3; experiment: Tumor cell line proliferation assay (Alamar Blue), PC-3; type: cell-based; settings: Homo sapiens; PC-3 cells
# Description: The ability of one or more subject compounds to inhibit tumor cell line proliferation is determined according to standard procedures known in the art. For instance, an in vitro cellular proliferation assay can be performed to measure the metabolic activity of live cells. The assay is performed in a 96 well microtiter plate using Alamar Blue reduction. Human tumor cell lines are obtained from ATCC (e.g., MCF7, U-87 MG, MDA-MB-468, PC-3), grown to confluency in T75 flasks, trypsinized with 0.25% trypsin, washed one time with Tumor Cell Media (DMEM+10% FBS), and plated in 90 ul at 5,000 cells/well in Tumor Cell Media. A compound disclosed herein is diluted in Tumor Cell Media and added in a 10 ul volume. Plates are incubated for 72 hours at 37 C and 5% CO2. A volume of 10 uL of Alamar Blue reagent is added to each well and plates are incubated for 3 hours at 37 C and 5% CO2. Alamar Blue fluoresce is read at 560Ex/590Em, and IC50 values are calculated using GraphPad Prism 5.
# [3] = target: T2, mTOR (Homo sapiens, UniProt P42345); experiment: mTOR inhibition assay; type: biochemical
# T2 construct: purchased Invitrogen
# T2 sequence (P42345 1360-2549 limits assumed): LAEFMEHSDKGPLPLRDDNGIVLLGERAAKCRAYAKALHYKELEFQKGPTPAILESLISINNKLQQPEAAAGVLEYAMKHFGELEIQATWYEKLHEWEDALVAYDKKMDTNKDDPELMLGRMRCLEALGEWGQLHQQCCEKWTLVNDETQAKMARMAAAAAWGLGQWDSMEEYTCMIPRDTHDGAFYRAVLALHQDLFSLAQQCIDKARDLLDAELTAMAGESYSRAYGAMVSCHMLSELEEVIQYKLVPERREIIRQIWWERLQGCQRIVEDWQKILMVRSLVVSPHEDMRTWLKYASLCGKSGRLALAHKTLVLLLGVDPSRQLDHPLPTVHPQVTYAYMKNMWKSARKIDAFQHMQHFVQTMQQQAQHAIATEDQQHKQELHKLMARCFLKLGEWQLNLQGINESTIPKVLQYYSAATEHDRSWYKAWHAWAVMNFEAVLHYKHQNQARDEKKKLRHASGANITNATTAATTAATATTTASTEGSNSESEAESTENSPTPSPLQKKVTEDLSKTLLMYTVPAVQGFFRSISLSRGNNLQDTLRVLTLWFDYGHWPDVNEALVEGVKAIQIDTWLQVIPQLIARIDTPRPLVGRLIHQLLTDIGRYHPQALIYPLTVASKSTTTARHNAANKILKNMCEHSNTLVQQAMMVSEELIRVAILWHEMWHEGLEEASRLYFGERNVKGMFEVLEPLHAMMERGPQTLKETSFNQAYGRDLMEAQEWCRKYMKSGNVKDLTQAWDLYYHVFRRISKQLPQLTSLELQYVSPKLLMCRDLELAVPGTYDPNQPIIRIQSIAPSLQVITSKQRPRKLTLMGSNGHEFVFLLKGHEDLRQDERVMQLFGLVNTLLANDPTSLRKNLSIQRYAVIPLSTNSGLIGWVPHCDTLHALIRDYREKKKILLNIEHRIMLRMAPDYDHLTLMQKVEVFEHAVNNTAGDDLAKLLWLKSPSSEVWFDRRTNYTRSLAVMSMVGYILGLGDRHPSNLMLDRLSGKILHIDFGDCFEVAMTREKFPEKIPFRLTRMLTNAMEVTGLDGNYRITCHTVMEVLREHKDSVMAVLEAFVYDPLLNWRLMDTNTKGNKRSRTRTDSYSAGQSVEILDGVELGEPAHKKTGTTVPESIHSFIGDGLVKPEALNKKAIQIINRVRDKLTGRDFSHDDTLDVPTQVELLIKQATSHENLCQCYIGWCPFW
# Description: The compounds described herein can be tested against recombinant mTOR (Invitrogen) in an assay containing 50 mM HEPES, pH 7.5, 1 mM EGTA, 10 mM MgCl2, 2.5 mM, 0.01% Tween, 10 μM ATP (2.5 μCi of […]), and 3 μg/mL BSA. Rat recombinant PHAS-1/4EBP1 (Calbiochem; 2 mg/mL) is used as a substrate. Reactions are terminated by spotting onto nitrocellulose, which is washed with 1M NaCl/1% phosphoric acid (approximately 6 times, 5-10 minutes each). Sheets are dried and the transferred radioactivity quantitated by phosphorimaging.
# Other kits or systems for assaying mTOR activity are commercially avaiable. For instance, one can use Invitrogen's LanthaScreen™ Kinase assay to test the inhibitors of mTOR disclosed herein. This assay is a time resolved FRET platform that measures the phosphorylation of GFP labeled 4EBP1 by mTOR kinase. The kinase reaction is performed in a white 384 well microtitre plate. The total reaction volume is 20 ul per well and the reaction buffer composition is 50 mM HEPES pH7.5, 0.01% Polysorbate 20, 1 mM EGTA, 10 mM MnCl2, and 2 mM DTT. In the first step, each well receives 2 ul of test compound in 20% dimethylsulphoxide resulting in a 2% DMSO final concentration. Next, 8 ul of mTOR diluted in reaction buffer is added per well for a 60 ng/ml final concentration. To start the reaction, 10 ul of an ATP/GFP-4EBP1 mixture (diluted in reaction buffer) is added per well for a final concentration of 10 uM ATP and 0.5 uM GFP-4EBP1. The plate is sealed and incubated for 1 hour at room temperature. The reaction is stopped by adding 10 ul per well of a Tb-anti-pT46 4EBP1 antibody/EDTA mixture (diluted in TR-FRET buffer) for a final concentration of 1.3 nM antibody and 6.7 mM EDTA. The plate is sealed, incubated for 1 hour at room temperature, and then read on a plate reader set up for LanthaScreen™ TR-FRET. Data is analyzed and IC50s are generated using GraphPad Prism 5.
# [4] = target: T3, PI3K β (p110β/p85α) (Homo sapiens, UniProt P42338); experiment: PI3K β (p110β/p85α) inhibition assay; type: biochemical
# T3 construct: purchased Upstate
# Description: as §1, §2
# [5] = target: T4, PI3K γ (p110γ) (Homo sapiens, UniProt P48736); experiment: PI3K γ (p110γ) inhibition assay; type: biochemical
# T4 construct: purchased Sigma
# T4 sequence (P48736 whole entry): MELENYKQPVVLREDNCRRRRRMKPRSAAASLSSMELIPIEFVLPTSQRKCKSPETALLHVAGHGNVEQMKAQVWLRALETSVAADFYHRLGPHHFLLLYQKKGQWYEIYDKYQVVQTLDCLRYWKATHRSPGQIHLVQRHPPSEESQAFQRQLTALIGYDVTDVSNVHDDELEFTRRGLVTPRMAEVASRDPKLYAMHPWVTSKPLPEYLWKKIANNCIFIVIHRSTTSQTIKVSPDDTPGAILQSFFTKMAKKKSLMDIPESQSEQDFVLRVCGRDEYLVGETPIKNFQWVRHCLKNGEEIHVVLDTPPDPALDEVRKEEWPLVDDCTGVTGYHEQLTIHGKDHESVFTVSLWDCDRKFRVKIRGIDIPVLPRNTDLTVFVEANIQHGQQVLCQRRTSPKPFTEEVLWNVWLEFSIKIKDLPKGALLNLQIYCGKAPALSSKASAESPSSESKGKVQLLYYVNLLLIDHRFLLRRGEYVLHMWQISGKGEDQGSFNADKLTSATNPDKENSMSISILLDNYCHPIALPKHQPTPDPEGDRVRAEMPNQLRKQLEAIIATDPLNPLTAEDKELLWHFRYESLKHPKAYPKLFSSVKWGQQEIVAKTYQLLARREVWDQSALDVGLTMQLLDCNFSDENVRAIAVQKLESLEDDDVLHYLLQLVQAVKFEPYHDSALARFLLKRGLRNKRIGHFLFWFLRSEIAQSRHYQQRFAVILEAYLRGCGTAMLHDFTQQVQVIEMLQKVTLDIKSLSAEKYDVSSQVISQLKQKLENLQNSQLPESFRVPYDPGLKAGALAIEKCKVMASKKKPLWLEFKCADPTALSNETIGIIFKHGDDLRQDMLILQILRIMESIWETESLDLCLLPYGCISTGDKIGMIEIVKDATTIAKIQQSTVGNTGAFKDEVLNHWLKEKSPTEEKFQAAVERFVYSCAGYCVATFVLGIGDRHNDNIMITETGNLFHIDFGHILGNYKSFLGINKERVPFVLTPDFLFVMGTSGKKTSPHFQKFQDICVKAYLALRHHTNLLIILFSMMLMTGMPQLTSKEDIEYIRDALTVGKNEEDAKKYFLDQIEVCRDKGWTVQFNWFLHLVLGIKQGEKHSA
# Description: as §1, §2
# [6] = target: T5, PI3K δ (p110δ/p85α) (Homo sapiens, UniProt O00329); experiment: PI3K δ (p110δ/p85α) inhibition assay; type: biochemical
# T5 construct: purchased Upstate
# T5 sequence (O00329 whole entry): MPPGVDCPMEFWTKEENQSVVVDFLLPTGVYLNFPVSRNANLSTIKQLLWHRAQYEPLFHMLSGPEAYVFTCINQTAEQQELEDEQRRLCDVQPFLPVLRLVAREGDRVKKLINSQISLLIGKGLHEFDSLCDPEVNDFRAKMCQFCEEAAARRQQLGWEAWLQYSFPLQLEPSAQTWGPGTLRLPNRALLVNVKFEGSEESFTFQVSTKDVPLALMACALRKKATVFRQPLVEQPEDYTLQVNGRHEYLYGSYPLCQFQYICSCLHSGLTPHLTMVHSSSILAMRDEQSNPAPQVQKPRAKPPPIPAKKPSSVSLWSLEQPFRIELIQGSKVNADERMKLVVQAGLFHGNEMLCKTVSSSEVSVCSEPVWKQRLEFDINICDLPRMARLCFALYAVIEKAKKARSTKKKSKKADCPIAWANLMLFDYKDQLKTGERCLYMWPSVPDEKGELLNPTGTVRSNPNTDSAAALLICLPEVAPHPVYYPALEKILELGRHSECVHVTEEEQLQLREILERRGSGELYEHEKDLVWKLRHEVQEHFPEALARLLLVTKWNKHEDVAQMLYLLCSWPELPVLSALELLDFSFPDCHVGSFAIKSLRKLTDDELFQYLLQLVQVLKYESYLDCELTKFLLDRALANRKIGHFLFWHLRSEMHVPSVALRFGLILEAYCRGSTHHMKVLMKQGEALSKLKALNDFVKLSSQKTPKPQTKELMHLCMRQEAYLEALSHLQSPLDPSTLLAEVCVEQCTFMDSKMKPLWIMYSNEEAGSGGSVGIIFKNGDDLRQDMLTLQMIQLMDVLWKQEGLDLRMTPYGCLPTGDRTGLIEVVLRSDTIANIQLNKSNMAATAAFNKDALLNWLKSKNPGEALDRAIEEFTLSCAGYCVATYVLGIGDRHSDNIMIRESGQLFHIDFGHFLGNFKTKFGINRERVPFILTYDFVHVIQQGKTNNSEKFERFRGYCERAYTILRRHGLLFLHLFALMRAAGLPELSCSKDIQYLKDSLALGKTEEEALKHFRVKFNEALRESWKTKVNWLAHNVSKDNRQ
# T5 sequence (P27986 whole entry partner): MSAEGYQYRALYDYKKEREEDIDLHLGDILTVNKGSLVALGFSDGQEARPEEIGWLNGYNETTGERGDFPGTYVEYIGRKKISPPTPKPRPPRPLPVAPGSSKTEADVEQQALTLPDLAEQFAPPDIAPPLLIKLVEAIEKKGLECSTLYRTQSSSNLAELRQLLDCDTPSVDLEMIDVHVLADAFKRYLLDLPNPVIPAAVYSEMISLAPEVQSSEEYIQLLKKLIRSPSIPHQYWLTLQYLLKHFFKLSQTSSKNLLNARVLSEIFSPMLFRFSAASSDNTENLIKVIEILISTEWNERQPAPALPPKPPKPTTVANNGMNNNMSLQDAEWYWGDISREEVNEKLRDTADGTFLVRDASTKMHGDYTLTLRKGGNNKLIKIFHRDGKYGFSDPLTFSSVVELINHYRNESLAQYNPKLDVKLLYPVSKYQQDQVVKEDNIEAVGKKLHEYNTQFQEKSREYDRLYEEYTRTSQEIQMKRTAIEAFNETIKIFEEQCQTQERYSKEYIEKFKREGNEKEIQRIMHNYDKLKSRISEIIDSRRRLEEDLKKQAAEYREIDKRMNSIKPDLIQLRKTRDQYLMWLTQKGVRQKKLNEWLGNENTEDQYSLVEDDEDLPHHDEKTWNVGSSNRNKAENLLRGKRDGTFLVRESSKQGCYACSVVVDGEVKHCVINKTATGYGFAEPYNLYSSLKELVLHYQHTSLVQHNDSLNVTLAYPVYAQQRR
# Description: as §1, with “IC50” for “Class I PI3-Ks can be either purchased (p110α/p85α, p110β/p85α, p110δ/p85α from Upstate, and p110γ from Sigma) or expressed as previously described (Knight at al., 2004). IC50”, “quantitated.” for “quantitated. For each compound, kinase activity is measured at 10-12 inhibitor concentrations representing two-fold dilutions from the highest concentration tested (typically, 200 μM).”
# as §2
SMILES,IC50 [1] [nM],EC50 [2] [µM],IC50 [3] [nM],IC50 [4] [nM],IC50 [5] [nM],IC50 ([6]; read-out: PI3K δ IC50) [nM],IC50 [6] [nM]
Cc1nc(N)nc2ccc(-c3cnc4[nH]ccc4c3)cc12 [Compound 5],< 1000,≤ 50,> 1000,–,–,–,–
CNc1nc(C)c2cc(-c3ccc(O)c(Cl)c3)ccc2n1 [Compound 10],< 1000,≤ 20,> 1000,–,–,–,–
CNc1nc(C)c2cc(-c3cccc(O)c3)ccc2n1 [Compound 1],< 500,≤ 50,> 1000,> 1000,< 100,< 500,–
Cc1nc(N)nc2ccc(-c3cccc(O)c3)cc12 [Compound 4],< 500,≤ 20,> 1000,< 500,< 100,< 100,–
CNc1nc(C)c2cc(-c3ccc(O)c(F)c3)ccc2n1 [Compound 11],< 1000,≤ 50,> 1000,–,–,–,–
CNc1nc(C)c2cc(-c3cnc4[nH]ccc4c3)ccc2n1 [Compound 2],< 1000,≤ 50,> 1000,> 1000,< 500,> 1000,–
CNc1nc(C)c2cc(-c3cc(O)cc(F)c3)ccc2n1 [Compound 8],< 500,≤ 20,> 1000,< 1000,< 100,–,< 100
Cc1nc(Nc2cccnc2)nc2ccc(-c3cc(O)cc(F)c3)cc12 [Compound 7],< 100,≤ 20,> 1000,> 1000,< 100,< 100,–
Cc1nc(Nc2cccnc2)nc2ccc(-c3cccc(O)c3)cc12 [Compound 6],< 100,≤ 50,> 1000,> 1000,< 100,< 100,–
CNc1nc(C)c2cc(-c3ccc(F)c(O)c3)ccc2n1 [Compound 9],< 1000,≤ 20,> 1000,–,–,–,–
Nc1ncc2cc(-c3cccc(O)c3)ccc2n1 [Compound 3],< 500,≤ 50,> 1000,–,–,–,–
